US6541463B1, “Inhibitors of type 5 and type 3 17β-hydroxysteroid dehydrogenase and methods for their use” (Endorecherche, Inc., priority 1998, dated 2003)
“And” between values parts separate entries of the source, which are not always exact repeats. Identical values can stand only once. Like-named read-outs stand apart in the source and are kept apart here.

Biological target: T1, human type 5 17β-hydroxysteroid dehydrogenase (Homo sapiens, UniProt P42330)
T1 construct: screen again a human placental λgt11 cDNA to get the full length cDNA clone; expressed in transfected cells; host or cells: human embryonal kidney 293 cells (pCMV / pCMV-neo vector)
T1 sequence (P42330 1-323): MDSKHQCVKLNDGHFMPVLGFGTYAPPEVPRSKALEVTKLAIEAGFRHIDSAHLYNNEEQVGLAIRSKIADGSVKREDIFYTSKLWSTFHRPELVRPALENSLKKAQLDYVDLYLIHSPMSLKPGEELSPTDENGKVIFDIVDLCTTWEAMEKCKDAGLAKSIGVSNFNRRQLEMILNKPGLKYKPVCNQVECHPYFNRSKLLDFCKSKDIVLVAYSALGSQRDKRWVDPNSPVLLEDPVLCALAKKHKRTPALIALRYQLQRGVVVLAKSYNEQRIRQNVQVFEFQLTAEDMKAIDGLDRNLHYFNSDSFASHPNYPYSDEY
Test: Inhibition of human type 5 17β-HSD activity in transfected 293 cells
Assay type: cell-based
Set-up: Inhibition Type V 17B-HSD % Inh. At 3 · 10^−7 (second value in parentheses): concentration or dose not given beside the values
Description: The manner in which IC50 was determined is described in “Efficacy of the Preferred Inhibitors”. Lower numbers for IC50 are desirable.
Using a oligoprimer pair (5′-GGA-AAT-CGT-GAC-AGG-GAA-TGG-ATT-CCA-AAC-AG-3′, 5′-GGA-ATT-CTT-TAT-TGT-ATT-TCT-GGC-CTA-TGG-AGT-GAG-3′) derived from human aldoketoreductase (Qin et al., J. Steroid Biochem. Molec. Biol. 46: 673-679, 1993) and polymerase chain reaction (PCR), we have amplified from a human placental λgt11 cDNA library (Clontech Laboratories Inc., Palo Alto, Calif.) a cDNA fragment that was used as probe to screen again a human placental λgt11 cDNA to get the full length cDNA clone. The amplified cDNA fragment was purified on agarose gel and labeled with [α^32P]dCTP (Amersham Corp.) using the random primer labeling kit from Pharmacia Inc. PCR amplification reaction medium contained 50 mM KCl, 10 mM Tris-HCl, pH 8.3, 0.1% gelatin, 1 mM MgCl2, 250 μM dNTP, 0.25 μM oligonucleotide primers, and 200 ng of DNA prepared from human placental λgt11 cDNA library. The aqueous phase was overlaid with 75 μL of mineral oil to avoid evaporation. The mixture was heated at 98° C. for 5 min, following the temperature reduction to 72° C., 1 unit of Taq DNA polymerase was added. Using a DNA Thermal Cycler (Perkin-Elmer Corp.), 30 cycles of amplification were carried out using a step program (94° C., 1 min; 60° C., 1 min; and 72° C., 1 min)/cycle.
Approximately 5×10^5 recombinant phage plaques were screened with 1.5×10^6 cpm/ml of the probe. Prehybridization was performed for 4 h at 42° C. in 50% formamide, 5× Denhardt's solution (1× Denhardt's being 0.02% polyvinyl pyrrolidone, 0.02 Ficoll, 0.02 bovine serum albumin), 5×SSPE (1×SSPE being 0.18M NaCl, 10 mM NaH2PO4, pH 7.4, 1 mM EDTA), 0.1% SDS, and 100 μg/ml yeast tRNA. The probe was denatured by heating at 100° C. for 5 min, before being added to the hybridization solution at 42° C. overnight. Filters were then washed twice at room temperature in 2×SSC (1×SSC being […], pH 7.0), 0.1% SDS, and twice in 0.1×SSC, 0.1% SDS at 60° C. Positive recombinant plaques were purified by replating twice and grown in liquid culture. Phage DNA were isolated by centrifugation for 90 min at 105,000×g, and DNA was then isolated by phenol extraction and precipitation with isopropanol (Karen et al. 1987; In: Current Protocols in Molecular Biology (F. M. Ausubel, R. Brent, E. Kingston, D. D. Moore, T. G. Seidman, T. A. Smith and K. Struhl, eds), Wiley & Sons, New York, pp. 1.13.1-1.13.6).
The phage DNA were digested with EcoRI restriction enzymes and the resulting cDNA fragments were inserted into the EcoRI site downstream to the cytomegalovirus (CMV) promoter of the pCMV vector (kindly provided by Dr. Matthew, Cold Spring Harbor, N.Y., USA). Recombinant pCMV plasmids were amplified in Escherichia Coli DH5α competent cells, and were isolated by alkaline lysis procedure (Maniatis et al., In: Molecular cloning: a laboratory manual, Cold Spring Harbor Laboratory., 1982). Sequencing of double-stranded plasmid DNA was performed according to the dideoxy chain termination method (Sanger et al., PNAS 74: 5453-5467, 1977) using a T7 DNA polymerase sequencing kit (Pharmacia LKB Biotechnology). To avoid errors, all sequences were determined by sequencing both strands of the DNA. Oligonucleotide primers were synthesized in our laboratory with a 394 DNA/RNA synthesizer (Applied Biosystem).
The pCMV vector contain 576 nucleotides of the pCMV promoter (followed by 432 bp of small t intron (fragment 4713-4570) and poly adenylation signal (2825-2536)of SV40, followed by 1989 bp of the Pvu II(628)-AatII (2617) fragment from pUC 19 vector (New England Biolabs) that contains an E. Coli origin of replication and an ampicillin resistance gene for propagation in E. Coli. […]

[1] = read-out: Inhibition Type V 17β-HSD IC50
[2] = Table 4′, read-out: Inhibition Type V 17β-HSD IC50
[3] = read-out: Inhibition Type V 17B-HSD IC50

| Structure (SMILES) | IC50 [2] | other results |
| --- | --- | --- |
| CC(=O)O[C@]1(C(=O)N(C)C)CCC2C3C=C(C)C4=CC(=O)CC[C@]4(C)C3CC[C@@]21C (stereo partly drawn) [EM-1159] |  | IC50 [1]: 14 ± 2 nM |
| CC12CCC3c4ccc(F)cc4CCC3C1CCC21CCCC(=O)O1 (stereo not drawn) [EM-1170-CS] | 7 ± 1 nM |  |
| CCC[C@]1(F)CC2C3C=CC4=CC(=O)CC[C@]4(C)C3CC[C@]2(C)C1=O (stereo partly drawn) [EM-1183] |  | IC50 [3]: 4.6 ± 0.4 nM |
| CC(=O)[C@@]1(OC(=O)CCCCF)CCC2C3C=C(C)C4=CC(=O)CC[C@]4(C)C3CC[C@@]21C (stereo partly drawn) [EM-1195-CS] |  | IC50 [1]: 4 ± 0.5 nM |
| CC(C)C[C@@H]1CC2C3C=CC4=CC(=O)CC[C@]4(C)C3CC[C@]2(C)C1=O (stereo partly drawn) [EM-1273-CS] |  | IC50 [3]: 9 nM |
| COc1ccc(CC(=O)O[C@]2(C(C)=O)CCC3C4C=C(C)C5=CC(=O)C=C[C@]5(C)C4CC[C@@]32C)cc1 (stereo partly drawn) [EM-1291] |  | IC50 [1]: 7 ± 1 nM |
| C[C@]12CCC(=O)C=C1C=C[C@@H]1[C@@H]2CC[C@]2(C)C(=O)C3(CC4CC4C3)C[C@@H]12 (stereo partly drawn) [EM-1299, 4,6-Androstadien-3,17-dione-16-spirobicyclo[3′.1′.0′]-hexane] |  | Inhibition Type V 17B-HSD % Inh. At 3 · 10^−7 (first value in parentheses) (first of two concentrations, 3 · 10^−7): (73%; Inhibition Type V 17B-HSD % Inh. At 3 · 10^−7 (second value in parentheses) (second of two concentrations, 3 · 10^−7): 99) % |
| CCS(=O)(=O)Oc1ccc2c(c1)CCC1C2CCC2(C)C1CCC21CCC(C)(C)C(=O)O1 (stereo not drawn) [EM-1364-CS] | 17 nM |  |
| CC1(C)CCC2(CCC3C4CCc5cc(OS(C)(=O)=O)ccc5C4CCC32C)OC1=O (stereo not drawn) [EM-1365-CS] | 12 nM |  |
| COCCOc1ccc2c(c1)CCC1C2CCC2(C)C1CCC21CCC(C)(C)C(=O)O1 [EM-1368-CS, 3-Methoxyethoxy-1,3,5(10)-estratrien-17(R)-spiro-2′-(5′,5′-dimethyl-6′-oxo)-tetrahydropyran] | 21 nM |  |
| CCOc1ccc2c(c1)CCC1C2CC[C@@]2(C)C1CC[C@@]21CCC(C)(C)C(=O)O1 (stereo partly drawn) [EM-1369, 3-Ethoxy-1,3,5(10)-estratrien-17(R)-spiro-2′-(5′,5′-dimethyl-6′-oxo)-tetrahydropyran] | 46 nM |  |
| COc1ccc2c(c1)CCC1C2CCC2(C)C1CCC21CCC(C)(C)C(=O)O1 (stereo not drawn) [EM-1370] | 43 nM |  |
| COCCOc1cc2c(cc1Cl)C1CCC3(C)C(CCC34CCC(C)(C)C(=O)O4)C1CC2 (stereo not drawn) [EM-1371-CS] | 19 nM and 20 nM |  |
| CC1(C)CC[C@@]2(CC[C@H]3[C@@H]4CCc5c(cc(Br)c(O)c5Br)[C@H]4CC[C@@]32C)OC1=O [EM-1382-CS] |  | Inhibition Type V 17β-HSD % Inh. at 3 · 10^−6 (Table 4′, 3 · 10^−6): 86%; Inhibition Type V 17β-HSD % Inh. at 3 · 10^−7 (Table 4′, 3 · 10^−7): 74% |
| COc1c(Br)cc2c(c1Br)CCC1C2CCC2(C)C1CCC21CCC(C)(C)C(=O)O1 (stereo not drawn) [EM-1385-CS] | 51 nM |  |
| COc1ccc2c(c1)C(=O)CC1C3CCC4(CCC(C)(C)C(=O)O4)C3(C)CCC21O (stereo not drawn) [EM-1386] | 25 nM |  |
| CN(C)CCOc1ccc2c(c1)CCC1C2CCC2(C)C1CCC21CCC(C)(C)C(=O)O1 (stereo not drawn) [EM-1389-CS] | 25 nM |  |
| CC1(C)CCC2(CCC3C4CCc5cc(OCCN6CCCCC6)ccc5C4CCC32C)OC1=O [EM-1390-CS, 3-(N-piperidyl-ethyl)-1,3,5(10)-estratrien-17(R)-spiro-2′-(5′,5′-dimethyl-6′-oxo)-tetrahydropyran] | 48 nM |  |
| CC1(C)CCC2(CCC3C4CCc5c(cc(Cl)c(O)c5Cl)C4CCC32C)OC1=O (stereo not drawn) [EM-1391-CS] | 19 nM |  |
